Measurements reported in patent US4440757A, “Pharmaceutical composition comprising derivative of aminobenzoic acid for regulating prostaglandin” (priority 1978, dated 1984).

How the values were obtained:
Ehrlich cancer cells = experiment: Cyclic AMP and cyclic GMP in cancer cells of cancer-bearing mouse; type: in vivo, female ICR/JCL mice; conditions: 200 mg/kg/day i.p., 5 days
Procedure: Ehrlich cancer cells were transplanted into the abdominal cavity of female ICR/JCL mice after 5 weeks of birth at a rate of 1×10^6, cells/animal, and while feeding the mice, the present substance, Specimen No. 7, was intraperitoneally administered to the mice every day from the next day of transplantation for 5 days at a rate of 200 mg/kg/day. On the 6th day, the mice were sacrificed with ether to collect each 5 ml of ascites. After adding tetrasodium ethylenediamminetetraacetate into the thus collected ascites, the mixture was centrifugated for 10 min at a temperature of 4° C. and 1,500 rpm to separate the supernatant liquid and the cancer cells. The supernatant liquid was again centrifugated at 4° C. and 3,000 rpm for 15 min. The separated cancer cells were washed with Hank's solution and then subjected to repeated centrifugation for 5 times at 800 rpm for each 5 min to remove impurities such as erythrocytes, etc. After homogenizing 1×10^8 cells of the cancer in 3 ml of an aqueous 6% solution of trichloroacetic acid at a temperature of 0° C., the homogenate was centrifugated for 20 min at 3000XG to obtain a liquid extract. After adding 10% by weight of an aqueous 1 N solution of hydrochloric acid to the liquid extract, it was extracted 5 times with each two times by volume of ether to remove trichloroacetic acid. […]

[1] = tested on: human dinuclear leukemia J-111 strain; experiment: PGs in culture medium of human leukemia cells; type: cell-based; conditions: 50, 500 or 5,000 μg/ml, 7 days
Procedure: To each 10 ml of a culture medium prepared by adding 10% of bovine foetal serum and one of the present substance, Specimen No. 7, at a concentration of 50, 500 or 5,000 μg/ml to Eagle's culture medium and placed in a polystyrene flask of 75 cm^2 in bottom surface, 5×10^5 cultured cells of human dinuclear leukemia J-111 strain were inoculated and cultured at 37° C. under a mixed atmosphere of 5% by volume of gaseous […] and 95% by volume of air for 7 days. During the cultivation, the culture medium was replaced on the second day and the fourth day with respective fresh ones, and each spent medium was subjected to centrifugation as soon as possible at a temperature of 4° C. at 1,500 rpm to obtain each supernatant liquid of cultured medium. The content of PGE and PGF2-α in each supernatant liquid was determined by ^3 H-Prostaglandin E Radioimmunoassay Kit and ^3 H-Prostaglandin F Radioimmunoassay Kit (manufactured by Clinical assay Co. U.S.A.).

MH-134 tumor = experiment: Preventing the metastasis of a transplanted tumour; type: in vivo, C3H/He mouse; conditions: for Number of metastatic lesion: not administered 4.5
Procedure: Cells of MH-134 tumor were transplanted to a C3 H/He mouse from its caudal vein at a rate of 2×10^6 cells/animal. The present substance, Specimen No. 7, was administered to the mouse respectively, 6, 3 and one hours before, and 1, 3 and 6 hours after the transplantation once at a rate of 1000 mg/kg forcibly p.o.
The mouse was sacrificed on 14th day of the transplantation to extirpate the lungs to examine the number of the metastatic lesion.

[2] = tested on: lymphocytes from the spleen of a BALB/C mouse; experiment: PGs metabolism of 3H-arachidonic acid taken into lymphocytes; type: cell-based; set-up: key: -: no change was observed; ±: change was slightly observed; +: change was clearly observed; conditions: 500 μg/ml, 37° C., 60 min
Procedure: After adjusting the lymphocytes taken from the spleen of a BALB/C mouse to a concentration of 1×10^7 cells/ml, 2 μCi of ^3 H-arachidonic acid was added and the mixture was incubated at a temperature of 37° C. for 90 min. The incubated lymphocytes were washed three times with the culture medium. After again ajusting the cells to a concentration of 1×10^7 cells per ml, the culture were poured into four siliconized test tubes in an amount of 2 ml/tube. Two test tubes were used as control, and into each of the remaining two test tubes, 500 μg of the present substance, in this Example, Specimen No. 7 was added, and then the four test tubes were incubated at 37° C. for 60 min. After incubation, the test tubes were centrifugated at 0° C. for 5 min. at 1,200 rpm.
The thus obtained pellets of cells were taken into a vial containing 2 ml of the culture medium and after adding 5 ml of petroleum ether, the vial was shaken and the ether layer was removed, the remaining aqueous layer being adjusted to pH of 3.5 by aqueous 0.5 N hydrochloric acid solution.
The aqueous acidic solution was extracted three times with each 5 ml of ether, and the ether extract was dried to solid. The solid material was subjected to esterification by a solution of diazomethane. The esterified reaction mixture was subjected to thin-layer chromatography and was developed with a 90:50:20:100 (by volume) mixed solvent of ethyl acetate:iso-octane:acetic acid:water. The identification of the thus appeared spots on the chromatogram was carried out by using the following authentic specimens of PGD2, PGE2, PGF2-α and 6-keto-PGF1-α. The silicagel layer of the separated chlomatogram was scraped out and dissolved into a liquid for the liquid scintillator to be counted. From the change of the counts the change of PGS was determined.

With `O=C(O)c1ccc(NC2OC[C@@H](O)[C@H](O)[C@H]2O)cc1` (stereo partly drawn) [Specimen No. 7, Sodium p-aminobenzoate-N--D-xyloside] the “GMP per 10^8 cancer cells” value (Ehrlich cancer cells; control 0.59) was 0.72 pM, the “Cyclic AMP per 10^8 cancer cells” value (Ehrlich cancer cells; control 19.5) was 21.2 pM and the “rate of decrease of PGE (FIG. 13)” value [1] was “the rate of decrease of PGE was raised as the concentration of the present substance was increased”. The “rate of increase of PGF2-α (FIG. 12)” value [1] was “the rate of increase of PGF2-α was reduced as the concentration of the present substance was increased”, the “Rate of positive metastasis” value (MH-134 tumor; 1000 mg/kg p.o. 1 hour after, printed 7/10) was 70% and the “Rate of positive metastasis” value (MH-134 tumor; 1000 mg/kg p.o. 1 hour before, printed 7/9) was 77.8%. For the same compound, the “Rate of positive metastasis” value (MH-134 tumor; 1000 mg/kg p.o. 3 hours after, printed 9/10) was 90%, the “Rate of positive metastasis” value (MH-134 tumor; 1000 mg/kg p.o. 3 hours before, printed 8/9) was 88.9% and the “Rate of positive metastasis” value (MH-134 tumor; 1000 mg/kg p.o. 6 hours after, printed 10/10) was 100%. The “Rate of positive metastasis” value (MH-134 tumor; 1000 mg/kg p.o. 6 hours before transplantation, printed 10/10) was 100%, the “Number of metastatic lesion” value (MH-134 tumor; 1 hour after) was 2.6 and the “Number of metastatic lesion” value (MH-134 tumor; 1 hour before) was 2.2. For the same compound, the “Number of metastatic lesion” value (MH-134 tumor; 3 hours after) was 3.0, the “Number of metastatic lesion” value (MH-134 tumor; 3 hours before) was 1.9 and the “Number of metastatic lesion” value (MH-134 tumor; 6 hours after) was 3.5. The “Number of metastatic lesion” value (MH-134 tumor; 6 hours before) was 2.3, the “Change of 6-keto-PGF1-α” value [2] was “±” and the “Change of PGD2” value [2] was “+”. The “Change of PGE2” value [2] was “+” and the “Change of PGF2-α” value [2] was “±”.
